Reference: PubChem BioAssay AID248 (DTP/NCI, 2004)
Where “and” joins values, the source holds several entries; their conditions need not be identical. Equal values may be shown once. Toxic doses and inconclusive results are not listed. Rule as the data show it: active = T/C of 150% or more; inactive = T/C below 125%.

Tested on: L1210 leukemia ip in BDF1 mice, survival T/C
Experiment: NCI In Vivo Anticancer Drug Screen. Data for tumor model L1210 Leukemia (intraperitoneal) in B6D2F1 (BDF1) mice
Conditions: endpoint: mean survival time, higher = longer survival
Procedure, shortened: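 Each compound was tested against a transplantable tumor grown in mice. The endpoint was survival, with treated animals benchmarked against vehicle controls as a simple ratio.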

[1] = dose: 100.0 mg/kg/injection, schedule: Q04DX003 (ip), vehicle: other
[2] = dose: 200.0 mg/kg/injection, schedule: Q04DX003 (ip), vehicle: other
[3] = dose: 400.0 mg/kg/injection, schedule: Q04DX003 (ip), vehicle: other
[4] = dose: 50.0 mg/kg/injection, schedule: Q01DX009 (ip), vehicle: Klucel (hydroxypropylcellulose) (HPC)
[5] = dose: 100.0 mg/kg/injection, schedule: Q01DX009 (ip), vehicle: Klucel (hydroxypropylcellulose) (HPC)
[6] = dose: 25.0 mg/kg/injection, schedule: Q01DX009 (ip), vehicle: saline
[7] = dose: 50.0 mg/kg/injection, schedule: Q01DX009 (ip), vehicle: saline
[8] = dose: 100.0 mg/kg/injection, schedule: Q01DX001 (ip), vehicle: saline
[9] = dose: 100.0 mg/kg/injection, schedule: Q01DX009 (ip), vehicle: saline with Tween-80
[10] = dose: 100.0 mg/kg/injection, schedule: Q04DX003 (ip), vehicle: Klucel (hydroxypropylcellulose) (HPC)
[11] = dose: 200.0 mg/kg/injection, schedule: Q04DX003 (ip), vehicle: Klucel (hydroxypropylcellulose) (HPC)
[12] = dose: 400.0 mg/kg/injection, schedule: Q04DX003 (ip), vehicle: Klucel (hydroxypropylcellulose) (HPC)
[13] = dose: 12.5 mg/kg/injection, schedule: Q01DX009 (ip), vehicle: saline

Measured: T/C

O=C1CCSc2ccccc21
inactive: dose: 37.5 mg/kg/injection, schedule: Q01DX009 (ip), vehicle: saline 102 % of control | dose: 75.0 mg/kg/injection, schedule: Q01DX009 (ip), vehicle: saline 111 % of control | dose: 100.0 mg/kg/injection, schedule: Q01DX001 (ip), vehicle: carboxymethylcellulose (CMC) 92 % of control | dose: 100.0 mg/kg/injection, schedule: Q01DX009 (ip), vehicle: saline sonified 105 % of control | [1] 96 % of control | dose: 150.0 mg/kg/injection, schedule: Q01DX009 (ip), vehicle: saline 104 % of control | dose: 200.0 mg/kg/injection, schedule: Q01DX001 (ip), vehicle: carboxymethylcellulose (CMC) 106 % of control | dose: 200.0 mg/kg/injection, schedule: Q01DX009 (ip), vehicle: saline sonified 93 % of control | [2] 96 % of control | dose: 400.0 mg/kg/injection, schedule: Q01DX001 (ip), vehicle: carboxymethylcellulose (CMC) 111 % of control | dose: 400.0 mg/kg/injection, schedule: Q01DX009 (ip), vehicle: saline sonified 97 % of control | [3] 102 % of control

O=C(CCCCc1ccc([N+](=O)[O-])cc1)Nc1ccc(S(=O)(=O)F)cc1
inactive: [4] 102 % of control | [5] 100 % of control | dose: 200.0 mg/kg/injection, schedule: Q01DX009 (ip), vehicle: Klucel (hydroxypropylcellulose) (HPC) 88 % of control

CC(C)c1nccn1Cc1ccccc1
inactive: dose: 25.0 mg/kg/injection, schedule: Q01DX001 (ip), vehicle: saline 97 % of control | [6] 105 % of control and 118 % of control | dose: 25.0 mg/kg/injection, schedule: Q04DX002 (ip), vehicle: saline 100 % of control and 101 % of control and 90 % of control | dose: 25.0 mg/kg/injection, schedule: Q04DX003 (ip), vehicle: saline 100 % of control | dose: 50.0 mg/kg/injection, schedule: Q01DX001 (ip), vehicle: saline 97 % of control | [7] 100 % of control and 102 % of control | dose: 50.0 mg/kg/injection, schedule: Q04DX003 (ip), vehicle: saline 92 % of control | dose: 75.0 mg/kg/injection, schedule: Q04DX002 (ip), vehicle: saline 106 % of control | [8] 112 % of control | dose: 100.0 mg/kg/injection, schedule: Q01DX009 (ip), vehicle: saline 100 % of control and 89 % of control

CC12C(=O)OC(=O)C1(C)C1OC2C(Br)C1Br (stereo unspecified)
inactive: dose: 25.0 mg/kg/injection, schedule: Q01DX009 (ip), vehicle: saline with Tween-80 95 % of control | dose: 50.0 mg/kg/injection, schedule: Q01DX009 (ip), vehicle: saline with Tween-80 97 % of control | [9] 88 % of control

CCCCCCCCCCCC(=O)NC(=S)Nc1ccccc1OCC
inactive: [10] 89 % of control | [11] 90 % of control | [12] 89 % of control

c1ccc(-c2n[nH]c(-c3ccccn3)n2)nc1
inactive: dose: 6.25 mg/kg/injection, schedule: Q01DX009 (ip), vehicle: Klucel (hydroxypropylcellulose) (HPC) 97 % of control | dose: 12.5 mg/kg/injection, schedule: Q01DX009 (ip), vehicle: Klucel (hydroxypropylcellulose) (HPC) 112 % of control

C[N+](C)(C)CCCS(=O)(=O)[O-]
inactive: dose: 50.0 mg/kg/injection, schedule: Q01DX001 (sc), vehicle: saline 98 % of control | dose: 100.0 mg/kg/injection, schedule: Q01DX001 (sc), vehicle: saline 98 % of control | dose: 100.0 mg/kg/injection, schedule: Q04DX002 (ip), vehicle: saline 100 % of control | dose: 200.0 mg/kg/injection, schedule: Q01DX001 (sc), vehicle: saline 109 % of control | dose: 200.0 mg/kg/injection, schedule: Q04DX002 (ip), vehicle: saline 111 % of control | dose: 400.0 mg/kg/injection, schedule: Q01DX001 (sc), vehicle: saline 98 % of control | dose: 400.0 mg/kg/injection, schedule: Q04DX002 (ip), vehicle: saline 95 % of control

Cn1cccc1/C=N/O
inactive: dose: 100.0 mg/kg/injection, schedule: Q04DX002 (ip), vehicle: Klucel (hydroxypropylcellulose) (HPC) 98 % of control | dose: 200.0 mg/kg/injection, schedule: Q04DX002 (ip), vehicle: Klucel (hydroxypropylcellulose) (HPC) 98 % of control | dose: 400.0 mg/kg/injection, schedule: Q04DX002 (ip), vehicle: Klucel (hydroxypropylcellulose) (HPC) 117 % of control

ClC1=C(Cl)C(Cl)(Cl)C(Cl)(Cl)C1(Cl)Cl
inactive: [13] 99 % of control | dose: 25.0 mg/kg/injection, schedule: Q01DX009 (ip), vehicle: Klucel (hydroxypropylcellulose) (HPC) 92 % of control | [6] 95 % of control | [4] 96 % of control | [7] 97 % of control | [5] 87 % of control | [10] 104 % of control | [11] 96 % of control | [12] 102 % of control

CNc1nc(N(C)C)nc(N(C)C)n1
inactive: dose: 75.0 mg/kg/injection, schedule: Q01DX001 (ip), vehicle: saline 92 % of control | dose: 150.0 mg/kg/injection, schedule: Q01DX001 (ip), vehicle: saline 94 % of control

CCCC1(CCC)c2ccccc2C(CCl)(OCC)c2ccccc21
inactive: dose: 100.0 mg/kg/injection, schedule: Q01DX009 (ip), vehicle: other 91 % of control | [1] 100 % of control | dose: 200.0 mg/kg/injection, schedule: Q01DX009 (ip), vehicle: other 88 % of control | [2] 103 % of control | dose: 400.0 mg/kg/injection, schedule: Q01DX009 (ip), vehicle: other 92 % of control | [3] 95 % of control

COc1cc(C(=O)NN2C(N)=NC(N)=NC2(C)C)cc(OC)c1OC
inactive: dose: 100.0 mg/kg/injection, schedule: Q04DX003 (ip), vehicle: saline sonified 105 % of control | dose: 200.0 mg/kg/injection, schedule: Q04DX003 (ip), vehicle: saline sonified 101 % of control | dose: 400.0 mg/kg/injection, schedule: Q04DX003 (ip), vehicle: saline sonified 106 % of control

O=C(O)c1ccccc1C(=O)NNC(=O)c1ccccc1C(=O)O
inactive: [9] 97 % of control | dose: 100.0 mg/kg/injection, schedule: Q04DX003 (ip), vehicle: saline with Tween-80 97 % of control | dose: 200.0 mg/kg/injection, schedule: Q01DX009 (ip), vehicle: saline with Tween-80 94 % of control | dose: 200.0 mg/kg/injection, schedule: Q04DX003 (ip), vehicle: saline with Tween-80 108 % of control | dose: 400.0 mg/kg/injection, schedule: Q01DX009 (ip), vehicle: saline with Tween-80 94 % of control | dose: 400.0 mg/kg/injection, schedule: Q04DX003 (ip), vehicle: saline with Tween-80 92 % of control

C/C=C(\Br)C(=O)Nc1ccc(OCC)cc1
inactive: [8] 100 % of control | dose: 200.0 mg/kg/injection, schedule: Q01DX001 (ip), vehicle: saline 105 % of control

OCC1OC(Nc2ncnc3c2ncn3C2OC(CO)C(O)C2O)C(O)C1O (stereo unspecified)
inactive: dose: 12.5 mg/kg/injection, schedule: Q01DX005 (ip), vehicle: saline 96 % of control | [13] 100 % of control | dose: 25.0 mg/kg/injection, schedule: Q01DX005 (ip), vehicle: saline 104 % of control | [6] 103 % of control | dose: 50.0 mg/kg/injection, schedule: Q01DX005 (ip), vehicle: saline 117 % of control
